Reference: article PMC7997579, “Synthetic Lethality in Pancreatic Cancer: Discovery of a New RAD51-BRCA2 Small Molecule Disruptor That Inhibits Homologous Recombination and Synergizes with Olaparib” (Journal of Medicinal Chemistry, 2020)
Read-outs that look alike come from different tables or passages of the source.

What was measured:
BRC4–RAD51 interaction = target: T1, BRC4–RAD51 interaction (Homo sapiens, UniProt Q06609); experiment: Competitive biochemical ELISA assay (biotinylated BRC4 peptide vs RAD51); assay type: binding
T1 construct: purchased Creative Biomart (RAD51); Life Technologies (BRC4 peptide)
T1 sequence (Q06609 1-339): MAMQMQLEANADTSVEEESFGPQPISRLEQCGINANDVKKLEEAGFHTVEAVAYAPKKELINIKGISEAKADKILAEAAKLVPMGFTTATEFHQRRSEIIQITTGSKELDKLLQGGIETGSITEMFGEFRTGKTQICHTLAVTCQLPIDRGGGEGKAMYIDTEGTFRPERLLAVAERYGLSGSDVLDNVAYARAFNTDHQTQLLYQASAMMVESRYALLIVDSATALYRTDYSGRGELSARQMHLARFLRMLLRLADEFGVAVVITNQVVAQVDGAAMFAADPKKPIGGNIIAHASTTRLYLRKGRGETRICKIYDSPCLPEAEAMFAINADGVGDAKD
Method in brief: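 Plates coated with N-terminally biotinylated BRC4 peptide were blocked (1% BSA/PBST) and hybridised overnight with human RAD51. Compounds were tested from 0.01 to 100 μM in triplicate (1% DMSO); bound RAD51 was detected by anti-RAD51 and HRP-secondary antibodies with TMB colorimetric read-out.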

recombinant human RAD51 = target: T2, recombinant human RAD51 (Homo sapiens, UniProt Q06609); experiment: Microscale thermophoresis (MST) binding assay; conditions: labeled His-hRAD51, 35d up to 40 μM, three replicates, read-out: Kd (RAD51-35d interaction)
T2 construct: made in house; host or cells: E. coli Rosetta2(DE3)pLysS, pET15b-His-hRAD51
T2 sequence (Q06609 1-339): T1 sequence (Q06609 1-339)
Experimental: To further assess the physical interaction between 35d and RAD51, a microscale thermophoresis (MST) assay was performed on the recombinant human RAD51 (see Experimental Section). The binding assay allowed us to determine the dissociation constant (Kd) for the RAD51-35d interaction and binding. […] This is in agreement with the ELISA assay, supporting the initial hypothesis that 35d could act as a RAD51-BRCA2 disruptor.
The recombinant protein hRAD51 was labeled with the Monolith His-Tag labeling kit RED-tris-NTA 2nd Generation kit (NanoTemper Technologies). MST measurements were simultaneously performed on 16 capillaries containing a constant concentration (25 nM) of labeled RED-tris-NTA 2nd Generation His-hRAD51 protein and 16 different concentrations of 35d in order to determine a concentration-dependent MST binding curve. The highest 35d concentration tested was 40 μM. Measurements were carried out in MST buffer (20 mM Hepes (pH 8.00), 250 mM KCl, 0.1 mM EDTA, 5% (v/v) glycerol, 5% DMSO).

BxPC-3 = experiment: Cytotoxicity assay (CellTox Green), cell death; assay type: cell-based, human; conditions: BxPC3, 72 h
Experimental: Cell death was assessed by applying the CellTox Green cytotoxicity assay (Promega). Briefly, BxPC-3 (1 × 10^4/well) were plated in 96-well plates and treated for 72 h with olaparib (10 μM) and the BRCA2-RAD51 disruptors administered alone or in combination. At the end of treatment, the CellTox dye was added to cell cultures and the green fluorescence signal, which is produced by the binding interaction with dead cell DNA, was measured following the manufacturer’s instructions.

BxPC-3 cells = experiment: Immunofluorescence of nuclear γ-H2AX foci (DNA damage); assay type: cell-based, human; conditions: BxPC-3, 48 h, 20 μM 35d + 10 μM olaparib vs olaparib alone
Experimental: (§1) To evaluate DNA damage through γH2AX nuclear foci, BXPC3 and Capan1 cells were seeded on glass coverslips in 6-well tissue culture plate (2 × 10^5 cells/well) and allowed to adhere overnight. After 48 h treatment with olaparib (10 μM) or 35d (20 μM) given alone or in combination, cultures growing on coverslips were fixed and treated as described above. For this experiment, the used antibodies were a rabbit polyclonal anti-γH2AX (Abcam, 1:1000 in 5% BSA/PBS) and a secondary anti-rabbit rhodamine-labeled (Novus Biologicals, 1:1000 in 1% BSA/PBS). For both experiments, images were acquired using a Nikon fluorescent microscope equipped with filters for FITC, TRITC, and DAPI. The percentage of cells bearing nuclear foci was estimated by two independent observers, by analyzing 100–250 cells for each treatment sample.

Capan-1 cells = experiment: as above; assay type: cell-based, human; conditions: Capan-1, 48 h, 20 μM 35d coadministered with 10 μM olaparib vs olaparib alone
Experimental: as §1

With `CCC(=O)N1N=C(c2c(-c3ccccc3)c3cc(Cl)ccc3[nH]c2=O)CC1c1ccc(OC)cc1` (stereo not shown) [Compound 35d, 6-Chloro-3-(5-(4-methoxyphenyl)-1-propionyl-4,5-dihydro-1H-pyrazol-3-yl)-4-phenylquinolin-2(1H)-one] the EC50 (BRC4–RAD51 interaction; Table 2, compounds selected for cell-based study, read-out: EC50 ELISA) was 19 ± 1 µM, the EC50 (BRC4–RAD51 interaction; competition with BRC4 for RAD51, triplicate, ± standard deviation, NA = not active, racemic mixtures unless enantiomer named, read-out: EC50 (μM) on ELISA assay) was 19 ± 1 µM and the Kd (recombinant human RAD51) was 11 ± 6 µM. For the same molecule, the “cell death, effect of olaparib coadministration” value (BxPC-3; 20 μM 35d + 10 μM olaparib, p < 0.0001) was “markedly increased and statistically significant”, the “cell death, effect of olaparib coadministration” value (BxPC-3; 10–15 μM 35d + 10 μM olaparib) was “no statistically significant increase” and the “γ-H2AX labeling in nuclei” value (BxPC-3 cells) was “increased”. The “γ-H2AX labeling in nuclei” value (Capan-1 cells) was “not further enhanced”.
